Experimental data: ChEMBL document CHEMBL1132267, “Synthesis and antibacterial properties of beta-diketone acrylate bioisosteres of pseudomonic acid A” (Bioorg Med Chem Lett, 1999)
Values after ≈ are worked out from the molar mass of the structure shown.

Columns and labels:
Staphylococcus aureus = assay: In vitro antibacterial activity against Staphylococcus aureus Oxford; type: functional
Haemophilus influenzae = assay: In vitro antibacterial activity against Haemophilus influenzae Q1; type: functional
Streptococcus pyogenes = assay: In vitro antibacterial activity against Streptococcus pyogenes CN10; type: functional
Streptococcus pneumoniae = assay: In vitro antibacterial activity against Streptococcus pneumoniae PU7; type: functional
Moraxella catarrhalis = assay: In vitro antibacterial activity against Moraxella catarrhalis 1502; type: functional
[1] = molecular target: T1, Isoleucine--tRNA ligase (Staphylococcus aureus) (UniProt P41972); assay: In vitro antibacterial activity against isoleucyl-tRNA synthetase from Staphylococcus aureus Oxford; type: functional
T1 sequence (whole entry): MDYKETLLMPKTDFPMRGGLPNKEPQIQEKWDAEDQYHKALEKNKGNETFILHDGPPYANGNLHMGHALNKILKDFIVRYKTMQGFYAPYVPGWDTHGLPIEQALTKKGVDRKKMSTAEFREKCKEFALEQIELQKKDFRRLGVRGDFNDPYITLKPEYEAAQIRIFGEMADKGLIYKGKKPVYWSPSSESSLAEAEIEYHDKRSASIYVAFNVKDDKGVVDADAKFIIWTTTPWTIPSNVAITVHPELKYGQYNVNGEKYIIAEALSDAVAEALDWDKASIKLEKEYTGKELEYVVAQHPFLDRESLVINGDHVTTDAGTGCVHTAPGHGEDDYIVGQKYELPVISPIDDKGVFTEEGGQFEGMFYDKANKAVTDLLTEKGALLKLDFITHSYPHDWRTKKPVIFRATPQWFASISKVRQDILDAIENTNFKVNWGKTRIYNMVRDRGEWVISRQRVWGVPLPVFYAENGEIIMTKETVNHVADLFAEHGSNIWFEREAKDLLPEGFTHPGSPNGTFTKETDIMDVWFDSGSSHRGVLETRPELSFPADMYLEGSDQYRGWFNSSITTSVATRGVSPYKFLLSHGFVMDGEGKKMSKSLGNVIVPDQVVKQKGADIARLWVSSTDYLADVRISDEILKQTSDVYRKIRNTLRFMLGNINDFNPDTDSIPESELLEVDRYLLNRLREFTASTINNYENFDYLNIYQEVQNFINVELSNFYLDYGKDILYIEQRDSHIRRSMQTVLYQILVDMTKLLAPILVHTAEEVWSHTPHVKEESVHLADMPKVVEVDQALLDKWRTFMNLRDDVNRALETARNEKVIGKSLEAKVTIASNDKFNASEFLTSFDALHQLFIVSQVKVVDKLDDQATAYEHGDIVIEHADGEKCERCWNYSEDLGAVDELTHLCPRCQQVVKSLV

[2] = tested on: Isoleucine--tRNA ligase (Moraxella catarrhalis); assay: In vitro antibacterial activity against isoleucyl-tRNA synthetase from Moraxella catarrhalis 1502
Homo sapiens = assay: The compound was tested for its percentage serum binding affinity in human […]; type: organism-based
Mus musculus [3] = assay: Concentration required to protect 50% of the mice from death after oral administration of compound tested in vivo; type: functional
Mus musculus [4] = assay: The area under curve in vivo in mouse blood level after oral administration at dose 50 mk/kg e-1; type: ADME, organism-based
Mus musculus [5] = assay: The area under curve in vivo in mouse blood level after subcutaneous administration at dose 50 mk/kg e-1; type: ADME, organism-based; conditions: sc
[6] = tested on: Isoleucine--tRNA ligase (Streptococcus pyogenes); assay: In vitro antibacterial activity against isoleucyl-tRNA synthetase from Streptococcus pyogenes CN10
[7] = tested on: Isoleucine--tRNA ligase (Haemophilus influenzae); assay: In vitro antibacterial activity against isoleucyl-tRNA synthetase from Haemophilus influenzae Q1
Mus musculus [8] = assay: Concentration required to protect 50% of the mice from death after s.c. administration of compound tested in vivo; type: functional
[9] = tested on: Isoleucine--tRNA ligase (Streptococcus pneumoniae); assay: In vitro antibacterial activity against isoleucyl-tRNA synthetase from Streptococcus pneumoniae PU7
Mus musculus [10] = assay: The compound was tested for its percentage serum binding affinity in mouse […]; type: functional

Row | Compound | MIC (Staphylococcus aureus) [µg/mL] | MIC (Haemophilus influenzae) [µg/mL] | MIC (Streptococcus pyogenes) [µg/mL] | MIC (Streptococcus pneumoniae) [µg/mL] | MIC (Moraxella catarrhalis) [µg/mL] | MIC [1] [µg/mL] | MIC [2] [µg/mL] | Bound (Homo sapiens) [%] | CD50 (Mus musculus [3]) [mg/kg] | AUC (Mus musculus [4]) [µg·min/mL] | AUC (Mus musculus [5]) [µg·min/mL] | MIC [6] [µg/mL] | MIC [7] [µg/mL] | CD50 (Mus musculus [8]) [mg/kg] | MIC [9] [µg/mL] | Bound (Mus musculus [10]) [%]
1 | COc1ccc(/C=C/C(=O)C[C@@H]2OC[C@H](C[C@@H]3O[C@H]3[C@@H](C)[C@H](C)O)[C@@H](O)[C@H]2O)cc1 | 128 (≈ 304 µM) | 1 (≈ 2.38 µM) | 8 (≈ 19 µM) | 8 (≈ 19 µM) | 16 (≈ 38 µM) |  |  |  |  |  |  |  |  |  |  | 
2 | C[C@H]([C@@H]1O[C@H]1C[C@H]1CO[C@@H](CC(=O)CC(=O)c2ccc(N(C)C)cc2)[C@H](O)[C@@H]1O)[C@H](C)O | 2 (≈ 4.45 µM) | 0.06 (≈ 0.133 µM) | 1 (≈ 2.22 µM) | 0.5 (≈ 1.11 µM) | 0.5 (≈ 1.11 µM) |  |  |  |  |  |  |  |  |  |  | 
3 | C[C@H]([C@@H]1O[C@H]1C[C@H]1CO[C@@H](CC(=O)CC(=O)C2=CCCCC2)[C@H](O)[C@@H]1O)[C@H](C)O | 2 (≈ 4.87 µM) | 0.13 (≈ 0.317 µM) | 0.5 (≈ 1.22 µM) | 0.5 (≈ 1.22 µM) | 2 (≈ 4.87 µM) |  |  |  |  |  |  |  |  |  |  | 
4 | C[C@H]([C@@H]1O[C@H]1C[C@H]1CO[C@@H](CC(=O)CC(=O)c2ccccc2)[C@H](O)[C@@H]1O)[C@H](C)O | 1 (≈ 2.46 µM) | 0.25 (≈ 0.615 µM) | 0.5 (≈ 1.23 µM) | 0.5 (≈ 1.23 µM) | 1 (≈ 2.46 µM) |  |  |  |  |  |  |  |  |  |  | 
5 | C/C(=C\C(=O)OCCCCCCCCC(=O)O)C[C@@H]1OC[C@H](C[C@@H]2O[C@H]2[C@@H](C)[C@H](C)O)[C@@H](O)[C@H]1O [MUPIROCIN] | 0.13 (≈ 0.26 µM) | 0.06 (≈ 0.12 µM) | 0.13 (≈ 0.26 µM) | 0.13 (≈ 0.26 µM) | 0.13 (≈ 0.26 µM) |  |  |  |  |  |  |  |  |  |  | 
6 | C[C@H]([C@@H]1O[C@H]1C[C@H]1CO[C@@H](CC(=O)CC(=O)c2cnn(C)c2)[C@H](O)[C@@H]1O)[C@H](C)O | 4 (≈ 9.74 µM) | 0.13 (≈ 0.317 µM) | 1 (≈ 2.44 µM) | 1 (≈ 2.44 µM) | 0.5 (≈ 1.22 µM) |  |  |  |  |  |  |  |  |  |  | 
7 | C[C@H]([C@@H]1O[C@H]1C[C@H]1CO[C@@H](CC(=O)CC(=O)c2ccoc2)[C@H](O)[C@@H]1O)[C@H](C)O | 1 (≈ 2.52 µM) | 0.13 (≈ 0.328 µM) | 1 (≈ 2.52 µM) | 2 (≈ 5.04 µM) | 2 (≈ 5.04 µM) |  |  |  |  |  |  |  |  |  |  | 
8 | COc1ccc(C(=O)CC(=O)C[C@@H]2OC[C@H](C[C@@H]3O[C@H]3[C@@H](C)[C@H](C)O)[C@@H](O)[C@H]2O)cn1 | 1 (≈ 2.29 µM) | 0.13 (≈ 0.297 µM) | 0.13 (≈ 0.297 µM) | 0.13 (≈ 0.297 µM) | 0.25 (≈ 0.571 µM) |  |  |  |  |  |  |  |  |  |  | 
9 | C[C@H]([C@@H]1O[C@H]1C[C@H]1CO[C@@H](CC(=O)CC(=O)c2ccsc2)[C@H](O)[C@@H]1O)[C@H](C)O | 1 (≈ 2.42 µM) | 0.13 (≈ 0.315 µM) | 1 (≈ 2.42 µM) | 0.5 (≈ 1.21 µM) | 1 (≈ 2.42 µM) |  |  |  |  |  |  |  |  |  |  | 
10 | C[C@H]([C@@H]1O[C@H]1C[C@H]1CO[C@@H](CC(=O)CC(=O)c2ccc(F)cc2)[C@H](O)[C@@H]1O)[C@H](C)O |  |  |  |  |  | 0.5 (≈ 1.18 µM) | 0.5 (≈ 1.18 µM) | 80 | 19 | 296 | 408 | 0.25 (≈ 0.589 µM) | 0.06 (≈ 0.141 µM) | 12 | 0.13 (≈ 0.306 µM) | 
11 | CCOC(OCC)c1ccc(C(=O)CC(=O)C[C@@H]2OC[C@H](C[C@@H]3O[C@H]3[C@@H](C)[C@H](C)O)[C@@H](O)[C@H]2O)cc1 | 1 (≈ 1.97 µM) | 1 (≈ 1.97 µM) | 0.5 (≈ 0.983 µM) | 1 (≈ 1.97 µM) | 0.5 (≈ 0.983 µM) |  |  |  |  |  |  |  |  |  |  | 
12 | CCCCC(=O)CC(=O)C[C@@H]1OC[C@H](C[C@@H]2O[C@H]2[C@@H](C)[C@H](C)O)[C@@H](O)[C@H]1O | 8 (≈ 20.7 µM) | 0.5 (≈ 1.29 µM) | 2 (≈ 5.17 µM) | 8 (≈ 20.7 µM) | 2 (≈ 5.17 µM) |  |  |  |  |  |  |  |  |  |  | 
13 | COc1ccc(C(=O)/C=C(\C)C[C@@H]2OC[C@H](C[C@@H]3O[C@H]3[C@@H](C)[C@H](C)O)[C@@H](O)[C@H]2O)cc1 |  |  |  |  |  | 0.5 (≈ 1.15 µM) | 0.25 (≈ 0.575 µM) | 96 | 18 | 106 | 336 | 0.25 (≈ 0.575 µM) | 0.03 (≈ 0.069 µM) | 12 | 0.25 (≈ 0.575 µM) | 79
14 | COc1ccc(C(=O)CC(=O)C[C@@H]2OC[C@H](C[C@@H]3O[C@H]3[C@@H](C)[C@H](C)O)[C@@H](O)[C@H]2O)cc1 |  |  |  |  |  | 0.5 (≈ 1.15 µM) | 0.25 (≈ 0.573 µM) | 75 | 28 | 355 | 894 | 0.25 (≈ 0.573 µM) | 0.06 (≈ 0.137 µM) | 3.8 | 0.25 (≈ 0.573 µM) | 51
15 | COc1ccc(C(=O)/C=C/C[C@@H]2OC[C@H](C[C@@H]3O[C@H]3[C@@H](C)[C@H](C)O)[C@@H](O)[C@H]2O)cc1 | 1 (≈ 2.38 µM) | 0.13 (≈ 0.309 µM) | 0.5 (≈ 1.19 µM) | 0.25 (≈ 0.595 µM) | 2 (≈ 4.76 µM) |  |  |  |  |  |  |  |  |  |  | 
16 | C[C@H]([C@@H]1O[C@H]1C[C@H]1CO[C@@H](CC(=O)CC(=O)c2ccc(C#N)cc2)[C@H](O)[C@@H]1O)[C@H](C)O | 2 (≈ 4.64 µM) | 0.06 (≈ 0.139 µM) | 0.13 (≈ 0.301 µM) | 0.25 (≈ 0.579 µM) | 0.5 (≈ 1.16 µM) |  |  |  |  |  |  |  |  |  |  | 
17 | C[C@H]([C@@H]1O[C@H]1C[C@H]1CO[C@@H](CC(=O)CC(=O)c2ccc(N(C)C)nc2)[C@H](O)[C@@H]1O)[C@H](C)O |  |  |  |  |  | 1 (≈ 2.22 µM) | 1 (≈ 2.22 µM) | 84 | 23 | 431 | 798 | 1 (≈ 2.22 µM) | 0.06 (≈ 0.133 µM) | 12 | 0.5 (≈ 1.11 µM) | 66
18 | C[C@H]([C@@H]1O[C@H]1C[C@H]1CO[C@@H](CC(=O)CC(=O)c2cnc(N(C)C)nc2)[C@H](O)[C@@H]1O)[C@H](C)O | 2 (≈ 4.43 µM) | 0.25 (≈ 0.554 µM) | 1 (≈ 2.21 µM) | 1 (≈ 2.21 µM) | 2 (≈ 4.43 µM) |  |  |  |  |  |  |  |  |  |  | 
